Legend:
[1] = Metabolic stability test on rat liver S9; type: in vitro ADME; details: rat liver S9 with NADPH, 1 μM test compound, 37° C.; residual rate after reaction, LC/MS
Procedure: The reaction using liver S9 of rat was conducted on a 96-well plate by using a screening robot by Tecan Company. S9 solution was prepared by adding 250 mM Kpi (pH 7.4) 20 ml and deionized water 20 ml to 10 ml of liver S9 of rat, a Cofactor solution was prepared by dissolving NADPH 220 mg in deionized water 40.5 ml (Final 6 mM), and IS (Internal Standard) solution was prepared by adding IS solution (1 mM DMSO solution) 300 μl to acetonitrile 30 ml (100 times dilution). The test compound (1 μM DMSO solution) was dissolved in an incubator at 37° C. After each 35 μL was poured in a 96-well plate (24 samples/plate), plates (sample plates, 96-well plates for dilution, each Deep well plates for the reaction and the recovery, plates for extraction of a solid phase) and reagents (S9 solution, Cofactor solution, IS (Internal Standard) solution, Stop solution, acetonitrile for elution) were set to the specified position in the booth of the robot, and the reaction started (the concentration of the test compounds was 1 μM). Incubation was conducted under shaking at 37° C., the solid phase was extracted (at the same time, the internal standard for analysis was added). To the recovered samples 200 μL/well was added 50 μL of acetonitrile per each well, and to 2 plates of FALCON Deep well were poured 100 μL/well of the solution per well. By subjecting to the LC/MS analysis, the chromatography of the test compound and the internal standard were described and the peak area was calculated. And then, the stability (residual rate after reaction) was calculated.

[2] = test system: spleen cells; assay: cells; type: cell-based; details: 24 h, read-out: Minimum effective concentration (interferon inducing activity), CD(SD)IGS rat spleen cells, 24 hours incubation; interferon in supernatant by L929/vesicular stomatitis virus bioassay
[3] = Metabolic stability test using human plasma; type: in vitro ADME; details: 1 μM test compound, 37° C. for 15 minutes, residual amount per pre-metabolization concentration as 100%
Procedure: Plasma was prepared from fresh human blood and the test compound (containing 1% DMSO) of the final concentration of 1 μM was added thereto.
After a metabolic reaction by plasma esterase was conducted at 37° C. for 15 minutes, the test compound was extracted with ethyl acetate, and quantitatively analyzed by reverse phase HPLC. The metabolic stability of the test compound was shown by the residual amount (%) per the concentration of pre-metabolization as 100%.

**Q.** With `CCOCCOc1nc(N)c2nc(O)n(Cc3cccc(CC(=O)OC)c3)c2n1` [Example 12, 2-(2-Ethoxyethoxy)-8-hydroxy-9-(3-methoxycarbonylmethylbenzyl)adenine] as the compound, how does the Residual rate [1] read?
**A.** 0%

**Q.** Which minimal effective concentration [2] does the source give for `Nc1nc(OCCCO)nc2c1nc(O)n2Cc1cccc(CC(=O)O)c1` [compound 4, 9-(3-Carboxymethylbenzyl)-8-hydroxy-2-(3-hydroxypropoxy)adenine, reference compound] here?
**A.** > 1 µM

**Q.** What does the source list for `COC(=O)Cc1cccc(Cn2c(O)nc3c(N)nc(SCCCCO)nc32)c1` [Example 2, 8-Hydroxy-2-(4-hydroxybutylthio)-9-(3-methoxycarbonylmethylbenzyl)adenine]?
**A.** minimal effective concentration [2]: 0.01 µM; Residual rate [3]: <1%

**Q.** For `CCCCOc1nc(N)c2nc(O)n(CCc3cccc(CC(=O)OC)c3)c2n1` [Example 9, 2-Butoxy-8-hydroxy-9-[2-(3-methoxycarbonylmethylphenyl)ethyl]adenine], which minimal effective concentration [2] is on record?
**A.** 0.03 µM

**Q.** What about the Residual rate [3] of the same compound?
**A.** 7.9%

**Q.** And the Residual rate [1]?
**A.** 0%

**Q.** Which Residual rate [1] does the source give for `CCCCOc1nc(N)c2[nH]c(=O)n(Cc3cc(CC(=O)OC)ccc3OC)c2n1` [Example 20, 2-Butoxy-8-hydroxy-9-[(2-methoxy-5-methoxycarbonylmethyl)benzyl]adenine] here?
**A.** 0%

**Q.** With `CCCCOc1nc(N)c2nc(O)n(Cc3ccc(CC(=O)OC)s3)c2n1` [Example 16, 2-Butoxy-8-hydroxy-9-{(5-methoxycarbonylmethyl-2-thienyl)methyl}adenine] as the compound, how does the Residual rate [1] read?
**A.** 0%

**Q.** Which Residual rate [1] does the source give for `COC(=O)Cc1cccc(Cn2c(O)nc3c(N)nc(OCC4CCCCC4)nc32)c1` [Example 13, 2-Cyclohexylmethoxy-8-hydroxy-9-(3-methoxycarbonylmethylbenzyl)adenine] here?
**A.** 11%

**Q.** Which minimal effective concentration [2] does the source give for `COC(=O)Cc1cccc(Cn2c(O)nc3c(N)nc(SCCCO)nc32)c1` [Example 1, 8-Hydroxy-2-(3-hydroxypropylthio)-9-(3-methoxycarbonylmethylbenzyl)adenine] here?
**A.** 0.01 µM

**Q.** What about the Residual rate [3] of the same compound?
**A.** <1%

**Q.** Which minimal effective concentration [2] does the source give for `CCCCOc1nc(N)c2nc(O)n(CCCc3cccc(CC(=O)O)c3)c2n1` [compound 10, 2-Butoxy-9-[3-(3-carboxymethylphenyl)propyl]-8-hydroxyadenine, reference compound] here?
**A.** 0.1 µM

**Q.** What does the source list for `COC(=O)Cc1cccc(Cn2c(O)nc3c(N)nc(OCCO)nc32)c1` [Example 5, 8-Hydroxy-2-(2-hydroxyethoxy)-9-(3-methoxycarbonylmethylbenzyl)adenine]?
**A.** minimal effective concentration [2]: 0.1 µM; Residual rate [3]: 5.8%

**Q.** For `Nc1nc(SCCCCO)nc2c1nc(O)n2Cc1cccc(CC(=O)O)c1` [Comparative example 2, 9-(3-Carboxymethylbenzyl)-8-hydroxy-2-(4-hydroxybutylthio)adenine, reference compound], which minimal effective concentration [2] is on record?
**A.** 1 µM

**Q.** With `CCCCOc1nc(N)c2[nH]c(=O)n(Cc3ccc(F)c(CC(=O)OC)c3)c2n1` [Example 21, 2-Butoxy-9-[(4-fluoro-3-methoxycarbonylmethyl)benzyl]-8-hydroxyadenine] as the compound, how does the Residual rate [1] read?
**A.** 1%

**Q.** With `COC(=O)Cc1cccc(Cn2c(O)nc3c(N)nc(OCC(O)CO)nc32)c1` (stereo not shown) [Example 11, 2-(2,3-Dihydroxy-1-propoxy)-8-hydroxy-9-(3-methoxycarbonylmethylbenzyl)adenine] as the compound, how does the Residual rate [3] read?
**A.** 20.9%

**Q.** For `Nc1nc(OCCO)nc2c1nc(O)n2Cc1cccc(CC(=O)O)c1` [compound 5, 9-(3-Carboxymethylbenzyl)-8-hydroxy-2-(2-hydroxyethoxy)adenine, reference compound], which minimal effective concentration [2] is on record?
**A.** > 1 µM

**Q.** What does the source list for `CCCCOc1nc(N)c2nc(O)n(CCCc3cccc(CC(=O)OC)c3)c2n1` [Example 10, 2-Butoxy-8-hydroxy-9-[3-(3-methoxycarbonylmethylphenyl)propyl]adenine]?
**A.** minimal effective concentration [2]: 0.01 µM; Residual rate [3]: <1%; Residual rate [1]: 1%

**Q.** Which Residual rate [1] does the source give for `CCCCOc1nc(N)c2nc(O)n(Cc3cc(CC(=O)OC)ccn3)c2n1` [Example 19, 2-Butoxy-8-hydroxy-9-{(4-methoxycarbonylmethyl-2-pyridyl)methyl}adenine] here?
**A.** 0%

**Q.** Which results are given for `COC(=O)Cc1cccc(Cn2c(O)nc3c(N)nc(OCCCO)nc32)c1` [Example 4, 8-Hydroxy-2-(3-hydroxypropoxy)-9-(3-methoxycarbonylmethylbenzyl)adenine]?
**A.** minimal effective concentration [2]: 0.03 µM; Residual rate [3]: 3.2%; Residual rate [1]: 8%

**Q.** For `COC(=O)CCc1nc(N)c2nc(O)n(Cc3cccc(CC(=O)OC)c3)c2n1` [Example 15, 8-Hydroxy-2-(2-methoxycarbonylethyl)-9-(3-methoxycarbonylmethylbenzyl)adenine], which Residual rate [1] is on record?
**A.** 0%

**Q.** With `CCCCOc1nc(N)c2nc(O)n(Cc3cccc(CC(=O)OC)n3)c2n1` [Example 18, 2-Butoxy-8-hydroxy-9-{(6-methoxycarbonylmethyl-2-pyridyl)methyl}adenine] as the compound, how does the Residual rate [1] read?
**A.** 0%

**Q.** Which minimal effective concentration [2] does the source give for `CCCCOc1nc(N)c2nc(O)n(CCc3cccc(CC(=O)O)c3)c2n1` [compound 9, 2-Butoxy-9-[2-(3-carboxymethylphenyl)ethyl]-8-hydroxyadenine, reference compound] here?
**A.** 0.3 µM

**Q.** With `Nc1nc(SCCCO)nc2c1nc(O)n2Cc1cccc(CC(=O)O)c1` [Comparative example 1, 9-(3-Carboxymethylbenzyl)-8-hydroxy-2-(3-hydroxypropylthio)adenine, reference compound] as the compound, how does the minimal effective concentration [2] read?
**A.** > 1 µM

**Q.** Which Residual rate [1] does the source give for `CCCCOc1nc(N)c2[nH]c(=O)n(Cc3ccc(OC)c(CC(=O)OC)c3)c2n1` [Example 22, 2-Butoxy-8-hydroxy-9-[(4-methoxy-3-methoxycarbonylmethyl)benzyl]adenine] here?
**A.** 2%
